Where two headings read alike, the source gives them in different places.
What was measured:
MDA-MB-231 cells [1] = test: cells; conditions: Homo sapiens, read-out: IC50 of suppression of cell viability
Experimental: After incubation, MTT solution (5 mg/ml, 20 μl per well) was added and incubated for 4 h. The culture media were then replaced with dimethyl sulfoxide (DMSO, 150 μl). […] The results are expressed as mean percentage of viable cells relative to untreated cells.

MDA-MB-231 cells [2] = test: Transwell invasion assay; assay type: cell-based, human; conditions: 20 μM, 24 h, normalized for cell viability
Experimental: Cell invasion and migration were measured using Transwell and wound healing assays, respectively. For Transwell assays, 2 × 10^4 cells were suspended in serum-free media and seeded in the top chamber of Matrigel-coated invasion inserts (Corning life science, Corning, NY). BHX was then added to the top chambers. DMEM containing 10% FBS was added to the lower chamber as a chemoattractant. After 24 h incubation, the non-invading cells on the upper surface of the membrane were wiped away, and the invading cells on the lower surface of the membrane were fixed using 95% ethanol and stained with 0.1% crystal violet. Images were captured at ×200 magnification using an inverted phase contrast microscope (BX61, Olympus, Japan). In parallel, cells were treated identically in 24-well plate. These cells were harvested, stained with 0.1% crystal violet, and counted. The number of cells that had invaded was normalized for effects on cell viability. For wound healing assays, cells were seeded at 2 × 10^5 cells/well in 24-well culture plates and allowed to reach confluence. […] Images of the scratches were recorded at ×40 magnification using a phase contrast microscope (EVOS, AMG, USA) at 0 and 20 h. The areas between leading edges were measured using Image J software, after which the rates of wound healing were calculated.

[3] = tested on: vimentin mRNA in MDA-MB-231 cells; test: PCR analysis of vimentin mRNA; assay type: cell-based, human; conditions: 24 h
Experimental: Total RNA from MDA-MB-231 cells was isolated using TRIzol (Life Technologies, USA). RNA samples were quantified using a NanoDrop 3300 spectrophotometer (Thermo Scientific, NanoDrop Products, Wilmington, DE, USA). Synthesis of cDNA was performed using a RevertAid First Strand cDNA Synthesis kit per manufacturer’s protocols (Thermo Scientific, USA). The reaction mixtures were heated at 95 °C for 10 min, followed by 30 cycles at 94 °C for 30 s, 58 °C for 30 s, 72 °C for 20 s, and a final extension at 72 °C for 5 min. Subsequently, PCR products were electrophoresed in a 1.5% agarose gel and scanned using a gel/fluorescence image analysis system. GAPDH was selected as a loading control to standardize the amount of cDNA from each sample.

[4] = tested on: β-catenin protein in MDA-MB-231 cells; test: Western blotting of β-catenin; assay type: cell-based, human
Experimental: (§1) Total cell lysates were obtained by lysing the cells in SDS lysis buffer containing a protease inhibitor (PMSF), and protein concentrations were determined using a BCA protein assay kit. The proteins were separated by SDS-PAGE and transferred to PVDF membranes. The membranes were incubated with primary antibodies against Snail, Vimentin, β-catenin, and E-cadherin (1:1000 dilution) overnight at 4 °C, rinsed with TBST, and incubated with IRDye-conjugated anti-rabbit or anti-mouse IgG secondary antibodies (1:1000, LI-COR Biosciences). A β-actin-specific monoclonal antibody (1:1000 dilution) was used as a loading control. Bands were visualized with an Odyssey LI-COR infrared imaging system (LI-COR, Lincoln, NE).

[5] = tested on: Snail protein in MDA-MB-231 cells; test: Western blotting of Snail; assay type: cell-based, human; conditions: western blot
Experimental: as §1

[6] = In vivo pharmacokinetics in rat plasma (UPLC-MS/MS, NCA); set-up: species or system Sprague-Dawley (SD) rats; conditions: intraperitoneal; for Cmax / MRT last / Tmax / half-life / AUC(0-t): male, Sprague-Dawley, plasma, ip; for MRT last: read-out: MRT0-t
Experimental: Male Sprague-Dawley (SD) rats (250 ± 50 g body weight) were purchased from Institute of Laboratory Animal Sciences, Peking Union Medical College (Beijing, China). Rats were housed in a light-controlled room at 25 ± 2 °C and 55 ± 5% relative humidity, at the Animal Center of Tianjin Medical University Cancer Institute and Hospital (Tianjin, China). Animals received a standard diet and water ad libitum. […] At 0, 10, 20, 30, 40 min, 1, 2, 3, 4, 6, 8, 10, 12, and 24 h post injection, blood samples were collected into heparinized glass tubes by direct venipuncture. Plasma was prepared from the blood by centrifugation at 13,000 rpm for 10 min at 4 °C and stored at −80 °C until further analysis.
An ACQUITY™ ultra-performance liquid chromatography system connected to a Xevo triple quadrupole mass spectrometry system (Waters, MA, USA) equipped with an electrospray ionization (ESI) source was used in this study. Aliquots (50 μl) of plasma was vortex-mixed with methanol (400 μl) containing diazepam (internal standard, 200 ng/ml concentration) for 2 min and then centrifuged at 13,000 rpm at 4 °C for 10 min. Then, 400 μl of supernatant was transferred to a clean centrifuge tube and dried with an N2 gas stream. Samples were reconstituted with 100 μl methanol/H2O (50/50, v/v). The injection volume of the assay was 5 μl. The mobile phase (MP) was composed of MPA (acetonitrile) and MPB (5 mM ammonium formate with 0.1% formic acid in water), and the flow rate was maintained at 0.3 ml/min. […] A switching valve directed the flow eluting between 1.0–2.5 min into a mass spectrometer, and the remainder to a waste container. BHX and diazepam were ionized with ESI in the positive mode and fragmented with collision gas for analysis using multiple reaction monitoring (MRM). The ESI source settings for the analysis were as follows: 350 °C gas temperature; 650 L/h desolvation; 50 L/h cone; 2.5 kV capillary voltage. […] The data acquisition and processing were done using MassLynx Mass Spectrometry software, version 4.1 (Waters, MA, USA). The dwell time was 400 ms for all ion transitions monitored.

HT29 = tested on: HT29; set-up: method as in PMID 24098916; conditions: cited from earlier work

O=C(NCc1ccc(O)cc1)C1C(c2ccccc2)C(c2ccccc2)=NN1c1ccccc1 (stereo not drawn) [BHX]
IC50 (MDA-MB-231 cells [1]; MDA-MB-231, 24 h): 28.1 µM | IC50 (MDA-MB-231 cells [1]; MDA-MB-231, 72 h): 13.8 µM | reduction of invasive potential (MDA-MB-231 cells [2]): 48.38% | reduction of vimentin mRNA levels ([3]; 5 μM): 4.89% | reduction of vimentin mRNA levels ([3]; 10 μM): 26.27% | reduction of vimentin mRNA levels ([3]; 20 μM): 40.08% | β-catenin expression by western blotting [4]: suppressed β-catenin expression in a concentration-dependent manner | Snail protein expression [5]: down-regulating Snail and vimentin expression in a dose-dependent manner | CL ([6]; 50 μg/kg): 0.467 ± 0.1 mL/min/kg | Vd ([6]; 50 μg/kg): 0.192 ± 0.047 L/kg | t1/2 ([6]; 50 μg/kg): 4.82 ± 0.93 h | CL ([6]; 100 μg/kg): 0.717 ± 0.12 mL/min/kg | Vd ([6]; 100 μg/kg): 0.253 ± 0.062 L/kg | Cmax ([6]; 50 ug/kg): 325 ± 55.1 ng/mL | MRT last ([6]; 50 ug/kg, 50 μg/kg): 6.8 ± 1.25 h | Tmax ([6]; 50 ug/kg, 50 μg/kg, read-out: Tmax): 5.37 ± 1.16 h | half-life ([6]; 50 ug/kg, 50 μg/kg, read-out: elimination half-life in plasma (converted)): 4.82 ± 0.93 h | AUC(0-t) ([6]; 50 ug/kg, first AUC0-t line): 1770 ± 325 ng·h/mL | AUC(0-t) ([6]; 50 ug/kg, second AUC0-t line): 1820 ± 287 ng·h/mL | Cmax ([6]; 100 ug/kg): 405 ± 87.5 ng/mL | MRT last ([6]; 100 ug/kg, 100 μg/kg): 6.36 ± 1.32 h | Tmax ([6]; 100 ug/kg, 100 μg/kg, read-out: Tmax): 5.62 ± 1.38 h | half-life ([6]; 100 ug/kg, 100 μg/kg, read-out: t1/2 (converted)): 4.11 ± 0.81 h | AUC(0-t) ([6]; 100 ug/kg, first AUC0-t line): 2300 ± 412 ng·h/mL | AUC(0-t) ([6]; 100 ug/kg, second AUC0-t line): 2350 ± 303 ng·h/mL | Tmax ([6]; Fig. 7c, read-out: time to peak plasma level post administration): ~6 h | cytotoxic effects (HT29): exhibits cytotoxic effects
